How the values were obtained:
[1] = tested on: Zelllinien des kleinzelligen Bronchialkarzinoms H69, SW2, OH1, OH3 und H82; experiment: XTT cell proliferation test, single agents Indometacin or IBMX; type: cell-based
Text: Vor Beginn der Versuche zur Zellproliferation wurde zunächst für jede Zelllinie eine Eichkurve erstellt, um die optimale Zellzahl pro ml für die nachfolgenden Versuchsreihen zu ermitteln. Dafür wurde das Zellproliferationskit XTT (Roche, Penzberg, Deutschland) verwendet. Hierbei wird durch ein in allen vitalen Zellen vorhandenes Enzym das gelbe Tetrazoliumsalz XTT zum orangen Salz Formazan reduziert. Somit stellt die Extinktion der jeweiligen Zellkulturprobe ein Maß für die Anzahl der vitalen Zellen dar.
Die Zelllinien wurden in sieben verschiedenen Konzentrationen zwischen 10^4 und 10^7 Zellen pro ml in Mikrotiterplatten mit 96 Vertiefungen ausgesät. In jede Vertiefung wurde zunächst 10 µl PBS (pH 7,4) vorgelegt und dann 90 µl der Zellsuspension mit der jeweiligen Zellzahl pro ml zugegeben. Für jede Zelllinie wurden sechs parallele Ansätze hergestellt. Nach 72 Stunden Inkubation unter Standardbedingungen wurden 50 µl XTT Labeling Mixture pro Vertiefung zugegeben. Nach sechs Stunden wurde die Absorption bei 450 nm in einem Dynatech MR 3.13 Mikroelisa Reader gemessen und anhand der erzielten Werte Eichkurven erstellt. Figur 1 zeigt die Eichkurven für die Zelllinien H69, SW2, OH1, OH3 und H82OH1-Zellen. Die Zellzahlen wurden so gewählt, dass sich die Zellen bei ungehindertem Wachstum in der exponentiellen Wachstumsphase befanden. So ergab sich eine Konzentration von 160.000 Zellen pro ml für die Zelllinien OH3 und SW2, 300.000 Zellen pro ml für OH1, 500.000 Zellen pro ml für H69 und 750.000 Zellen pro ml für H82.
Dieser Versuch wurde mit allen oben genannten Zelllinien durchgeführt. Dafür wurden zunächst Lösungen der einzelnen Wirkstoffe in die Vertiefungen einer 96-Loch-Mikrotiterplatte gegeben. Die in Kulturmedium vorliegenden Zellsuspensionen wurden zugegeben, sodass sich ein Gesamtvolumen von 100 µl pro Vertiefung ergab.
Die Zellzahl für die jeweiligen Zelllinien betrug für SW2 205.700 Zellen pro ml, für H82 964.000 Zellen pro ml, für OH1 385.700 Zellen pro ml, für OH3 205.700 Zellen pro ml und für H69 643.000 Zellen pro ml. Da zum Lösen von Indometacin 5% Ethanol und zum Lösen von IBMX 1 % Ethanol verwendet wurde, bestand die Kontrolle aus 70 µl Zellsuspension mit der jeweiligen Zellzahl pro ml, 20 µl Medium und 10 µl Alkoholkontrolle mit einer Konzentration von 6% Ethanol. Im Gesamtvolumen von 100 µl ergab sich somit eine Alkoholkonzentration von 0,6%. Der Leerwert bestand aus 100 µl Medium. Jede gewählte Kombination der Wirkstoffe in den unterschiedlichen Konzentrationen wurde pro Versuch sechsfach getestet.

[2] = tested on: H69 Zellen; experiment: XTT cell proliferation test, Meloxicam, Sildenafil and their combination; type: cell-based; details: Meloxicam alone, compared with Indomethacin
Experimental: Die zu untersuchenden Zelllinien wurden mit den in den Figuren angegeben Konzentrationen von Indometacin und IBMX behandelt. Die Proliferationsversuche wurden in 96-Loch-Mikrotiterplatten durchgeführt; das Gesamtvolumen pro Vertiefung betrug 100 µl. 80 µl Zellsuspension wurde pro Vertiefung verwendet. Die Zellzahl der jeweils verwendeten Suspensionen betrug für SW2 180.000 Zellen pro ml, für OH1 338.000 Zellen pro ml, für OH3 180.000 Zellen pro ml und für H69 563.000 Zellen pro ml. Da zum Lösen sowohl von Indometacin 20% Ethanol als auch von IBMX 20% Ethanol verwendet wurde, bestand die Kontrolle aus 80 µl Zellsuspension mit der jeweiligen Zellzahl pro ml und 20 µl Alkoholkontrolle mit einer Konzentration von 20% Ethanol. Im Gesamtvolumen von 100 µl ergab sich so eine Alkoholkonzentration von 4%. Eine weitere Kontrolle bestand aus 80 µl Zellsuspension mit der jeweiligen Zellzahl pro ml und 20 µl Kulturmedium, um den wachstumshemmenden Effekt vom Ethanol erkennen zu können. Der Leerwert bestand aus 100 µl Kulturmedium.
H69 Zellen wurden wie in Beispiel 5 beschrieben mit Meloxicam und Sildefanil behandelt. […] Die Ergebnisse sind in Figur 10 dargestellt. Auch hier lässt sich eine signifikant synergistische Wirkung auf die Proliferation der H69-Zellen beobachten.

[3] = 72 h, read-out: Inhibierung auf einen Wert von % der Alkoholkontrolle

With `CC(C)Cn1c(=O)n(C)c(=O)c2[nH]cnc21` [IBMX, 1-Methyl-3-(2-methylpropyl)-7H-purine-2,6-dione] the activity at 1500 µM ([1]; 72 h, 1,5 mM IBMX, cell line not stated, read-out: Hemmung, % der Alkoholkontrolle) was 51%, the activity at 1250 µM ([1]; 72 h, 1,25 mM IBMX, cell line not stated, read-out: Hemmung, % der Alkoholkontrolle) was 52% and the activity at 2000 µM ([1]; 72 h, 2,0 mM IBMX, cell line not stated, read-out: Hemmung, % der Alkoholkontrolle) was 45%. For the same compound, the activity at 750 µM ([1]; 72 h, from 0,75 mM IBMX, cell line not stated, data not shown, read-out: Hemmung, % der Alkoholkontrolle) was about 80% and the “Wirkung auf die verschiedenen Zellen des kleinzelligen Bronchialkarzinoms” value ([1]; single agent) was “antiproliferative Wirkung”.

For `COc1ccc2c(c1)c(CC(=O)O)c(C)n2C(=O)c1ccc(Cl)cc1` [Indometacin, 2-[1-(4-Chlorbenzoyl)-5-methoxy-2-methyl-1H-indol-3-yl]essigsäure], the activity at 200 µM [1, 3] was about 60% and the activity at 300 µM [1, 3] was about 60%.

`Cc1cnc(NC(=O)C2=C(O)c3ccccc3S(=O)(=O)N2C)s1` [Meloxicam, 4-Hydroxy-2-methyl-N-(5-methyl-2-thiazolyl)-2H-1,2-benzothiazin-3-carboxamid-1,1-dioxid] was tested, and the “Wirkung bei H69-Zellen” value [2] was “wirkt bei H69-Zellen in den gleichen Dosierungen wie Indomethacin”.
